# Patent US20130210057A1, “USE OF LABEL-FREE BIOSENSORS TO UNDERSTAND AND IDENTIFY TREATMENT FOR CANCER” (CORNING INCORPORATED, priority 2012, published 2013)
# Ends that are not written are not given here.
# Key:
# Type in all cases: cell-based, human
# [1] = system: HCT116 PTEN null cells; assay: Calcium flux assay (FLUO-4, FDSS/FLIPR); details: small molecule agonists 10 micromolar, peptide and lipid agonists 1 micromolar
# Text: (§1) To screen endogenous receptors and their coupled signaling pathways, we first assembled a GPCR agonist focused library (Table 1). The library consists of 120 GPCR agonists covering over 150 known GPCRs, based on their known pharmacology including polypharmacology. For small molecule chemical agonists, the dose used was 10 micromolar. For peptide agonists, the dose used was 1 micromolar. For lipid agonists, the dose used was also 1 micromolar. For both peptides and lipids, these agonists were suspended in a solution containing 0.05% bovine […] to increase their stability.
# [2] = system: HCT116 parental cells; assay: Calcium flux assay (FLUO-4, FDSS/FLIPR); details: small molecule agonists 10 micromolar, peptide and lipid agonists 1 micromolar
# Text: as §1
# [3] = system: HCT116 parental cell line; assay: Label-free RWG biosensor DMR assay; details: HCT116 parental
# Text: (§2) EPIC® beta version wavelength interrogation system (Corning Inc., NY) was used for whole cell sensing. This system consists of a temperature-control unit, an optical detection unit, and an on-board liquid handling unit with robotics. The detection unit is centered on integrated fiber optics, and enables kinetic measures of cellular responses with a time interval of ˜15 sec. Also EPIC® commercial systems were used, with a liquid handler accessory attached to EPIC® reader system. Also, an Epic® RWG imager can be used.
# (§3) The resonant waveguide grating (RWG) biosensor is capable of detecting minute changes in local index of refraction near the sensor surface and the waveguide thin film having gratings provide a cell culture surface. Since the local index of refraction within a cell is a function of density and its distribution of biomass (e.g., proteins, molecular complexes), the biosensor exploits its evanescent wave to non-invasively detect ligand-induced Dynamic Mass Redistribution (DMR) in native cells. When a cell is stimulated, it responds. That response is a redistribution of biomass in the cell. Upon stimulation, proteins, protein complexes, and/or organelles in the cells move. The evanescent wave extends into the cells and exponentially decays over distance, leading to a characteristic sensing depth of ˜150 nm. Any optical response mediated through receptor activation only represents an average over the portion of the cell that the evanescent wave is sampling. The aggregation of many cellular events downstream to the receptor activation leads to a DMR signal having characteristic kinetics and amplitudes.
# (§4) All assays were carried out at a controlled temperature (28° C.). At least two independent sets of experiments, each with at least three replicates, were performed.
# [4] = system: HCT116-PTEN Null cell line; assay: Label-free RWG biosensor DMR assay
# Text: as §2, §3, §4
# [5] = system: Akt, ERK1/2, EGFR, c-Src, STAT3 phosphorylation in HCT116 parental cells; assay: Western blot analysis of key signaling proteins in GPCR signaling; details: serum-starved, 5 min treatment; for Akt activation (phospho-Akt): SFLLR, SLIGKV 1 μM, S1P, LPA 2.5 μM
# [6] = system: Akt, ERK1/2, EGFR, c-Src, STAT3 phosphorylation in PTEN null cells; assay: as above; details: serum-starved, 5 min treatment; for Akt activation (phospho-Akt): SFLLR, SLIGKV 1 μM, S1P, LPA 2.5 μM
Compound,"Ca^2+ mobilization (fold increase in fluorescence, FLIPR) [1]","Ca^2+ mobilization (fold increase in fluorescence, FLIPR) [2]",receptor / signaling pathway activated (pathway deconvolution of DMR with toxins) ([3]; 10 μM agonist),"agonist DMR in PTEN deleted cell line compared to parental cell line (sensitivity to PTEN deletion) ([4]; 10 μM agonist (EGF, IGF1 1 μM))","receptor / signaling pathway activated (pathway deconvolution of DMR with toxins) ([4]; HCT116-PTEN Null, 10 μM agonist)",Akt activation (phospho-Akt) [5],EGFR activation [6],Akt activation (phospho-Akt) [6],"agonist-induced DMR signal ([3]; untreated, 10 μM agonist (EGF, IGF1 1 μM))","agonist-induced DMR signal ([4]; HCT116-PTEN Null, untreated, 10 μM agonist (EGF, IGF1 1 μM))","potency to trigger DMR, PTEN null vs parental ([4]; dose response, early P-DMR or late P-DMR (50 min poststimulation) amplitudes)","efficacy to trigger DMR, PTEN null vs parental ([4]; dose response, early or late P-DMR event)",level of phosphorylated STAT3 [5],level of phosphorylated STAT3 [6]
Nc1ncnc2c1ncn2[C@@H]1O[C@H](COP(=O)(O)OP(=O)(O)OP(=O)(O)O)[C@@H](O)[C@H]1O [ATP],robust Ca^2+ mobilization,robust Ca^2+ mobilization,activates multiple GPCRs and mediates signaling via multiple G proteins,dramatically different,activates multiple GPCRs and mediates signaling via multiple G proteins,–,–,–,–,–,–,–,–,–
"CCCCCCCCCCCCC/C=C/[C@@H](O)[C@@H](N)COP(=O)(O)O [S1P, sphingosine-1-phosphate]",–,–,–,–,–,did not activate,did not activate,did not activate,–,–,–,–,–,–
SFLLR-amide,robust Ca^2+ mobilization,robust Ca^2+ mobilization,–,distinct characteristics,–,did not activate,–,did not activate,robust DMR signal,robust DMR signal,almost identical,higher efficacy,significantly increased,significantly increased
SLIGKV-NH2,robust Ca^2+ mobilization,robust Ca^2+ mobilization,–,–,–,did not activate,–,did not activate,–,–,–,–,–,–
